{
  "source": "patent US20180119123A1",
  "about": "“CRISPR/CAS-RELATED METHODS AND COMPOSITIONS FOR TREATING HIV INFECTION AND AIDS” (EDITAS MEDICINE, INC., priority 2015, published 2018)",
  "system": "human mobilized peripheral blood CD34^+ HSCs",
  "experiment": "Viability by 7-AAD / Annexin-V flow cytometry 96 hours after Nucleofection",
  "format": "cell-based",
  "description": "Human CD34^+ HSCs cells from mobilized peripheral blood (AllCells) were thawed into StemSpan Serum-Free Expansion Medium (SFEM™, StemCell Technologies) containing 100 ng/mL each of the following cytokines: human stem cell factor (SCF), thrombopoietin (TPO), and flt-3 ligand (FL) (all from Peprotech). Cells were grown for 3 days in a humidified incubator and 5% CO2 20% O2. […] The published use of UM171 involved prolonged exposure of HSCs to the small molecule for ex vivo expansion of HSCs. In the current experiment, HSCs were exposed to UM171 for 2 hours before and 24 hours after delivery of Cas9 and gRNA plasmid DNA. This UM171 treatment protocol was based on pilot studies performed by the inventors that indicated acute pre-treatment with UM171 before lentivirus vector mediated gene delivery improved HSC viability compared to HSCs treated with vehicle (dimethylsulfoxide, DMSO, Sigma) alone. […] At 96 hours after Nucleofection™, CD34^+ cells were counted for by trypan blue exclusion and divided into 3 portions for the following analyses: a) flow cytometry analysis for assessment of viability by co-staining with 7-Aminoactinomycin-D (7-AAD) and allophycocyanin (APC)-conjugated Annexin-V antibody (ebioscience); b) flow cytometry analysis for maintenance of HSC phenotype (after co-staining with phycoerythrin (PE)-conjugated anti-human CD34 antibody and fluorescein isothicyanate (FITC)-conjugated anti-human CD90, both from BD Bioscience; c) hematopoietic colony forming cell (CFC) analysis by plating 1500 cells in semi-solid methylcellulose based Methocult medium (StemCell Technologies) that supports differentiation of erythroid and myeloid blood cell colonies from HSCs and serves as a surrogate assay to evaluate HSC multipotency and differentiation potential ex vivo; d) genomic DNA analysis for detection of editing at the CCR5 locus. […]",
  "note": "“Also recorded” adds a separate entry of the source.",
  "data": [
    {"smiles": "Cn1nnc(-c2ccc3c(c2)[nH]c2nc(Cc4ccccc4)nc(N[C@H]4CC[C@H](N)CC4)c23)n1", "note": "[UM171, (1r,4r)-N1-(2-benzyl-7-(2-methyl-2H-tetrazol-5-yl)-9H-pyrimido[4,5-b]indol-4-yl)cyclohexane-1,4-diamine]", "values": [
      {"measurement": "Effect of UM171 on CD34+ HSC viability, survival and proliferation after Nucleofection", "setting": "40 nM UM171, 2 hours before and 24 hours after Nucleofection with Cas9 and CCR5-U43 gRNA plasmid DNA", "value": "preserved CD34^+ HSC viability; also recorded: critical for maintenance of HSC survival and proliferation"},
      {"measurement": "Effect of UM171 on HSC survival and proliferation after Nucleofection", "setting": "pre-treatment and short-term (24-hour) co-culture, Cas9 and CXCR4 gRNA plasmid DNA", "value": "critical for maintenance of HSC survival and proliferation"}
    ]}
  ]
}
